From paper PMC10671693, “Design, Synthesis, and Antitumor Activity Evaluation of Proteolysis-Targeting Chimeras as Degraders of Extracellular Signal-Regulated Kinases 1/2” (International Journal of Molecular Sciences, 2023)
Entries after “also recorded” stand apart in the source; their conditions may differ.

Assays:
ERK1/2 = test: Western blot ERK1/2 protein degradation assay in A375 cells; format: cell-based, human; conditions: 48 h; for ERK1/2 degradative activity (in words): Western blot; for DC50: Western blotting and grayscale quantification; for DCmax: Western blot with grayscale quantification
Method: (§1) A375, HCT116, Calu-6, and B16-F10 cells were purchased from American Type Culture Collection (ATCC) and cultured in DMEM high glucose media (SH30022.01, Cytiva, Shanghai, China) supplemented with 10% fetal bovine serum (10099-144, Gibco, Carlsbad, CA, USA) and 1% penicillin/streptomycin (Solarbio, Beijing, China) in an incubator at 37 °C with 5% CO2.
Cells were cultured under the indicated conditions as described in “Cell culture”. Cells were seeded in 6-well plates (3516, Corning, New York, NY, USA). Compounds were dissolved in DMSO for storage (10 mM). Following compound treatment, cells were washed with PBS, scraped from the plate, and lysed using cell lysis buffer (Applygen, Beijing, China). After the protein in the cell lysate was quantified via the BCA quantification method, the samples were placed in a metal bath at 100 °C and heated for 5 min. Cell lysates were separated using a 10% SDS–PAGE gel and transferred to PVDF membranes (Merck Millipore, Burlington, MA, USA). The PVDF membrane was blocked with 5% nonfat dry milk in TBST for one hour. The PVDF membrane was transferred to the antibody diluent and incubated overnight at 4 °C. PVDF membranes were washed three times with TBST for 5 min each and then incubated with the appropriate HRP-conjugated secondary antibody for 1 h at room temperature. After washing three more times with TBST, the PVDF membrane was stained with a hypersensitive ECL chemiluminescence reagent (Biodragon, Beijing, China) and then imaged with Tanon 5200. Grayscale quantitative analysis was performed using ImageJ software. Statistical analysis was performed using GraphPad Prism 8. DC50 and Dmax values were fitted using a four-parameter [inhibitor] versus response and reported directly from the Prism output. Mean ± SD and unpaired t tests were performed in GraphPad Prism.

Calu-6 cells = test: Cell proliferation (CCK8) assay, Calu-6; format: cell-based; conditions: Homo sapiens, Calu-6, 72 h, read-out: IC50 (growth inhibition, cytotoxicity)
Method: as §1
(§2) A 96-well plate (3599, Corning, New York, NY, USA) was inoculated with 100 μL of complete medium containing 10,000 cells, and the experimental, control, and blank groups were established. Three parallel wells were used per concentration. After 10 h, the media from the experimental and control groups were replaced with a compound containing the indicated concentration of the complete medium. Cells were incubated for 72 h before 10 μL of CCK8 reagent (CA1210, Solarbio, Beijing, China) was added to each well and incubated for 1 h. Using a microplate reader (Tecan, Mannendorf, Switzerland), the absorbance at 450 nm was measured. The IC50 values were determined using GraphPad Prism 8 and nonlinear regression curve fitting.

A375 cells = test: Cell proliferation (CCK8) assay, A375; format: cell-based; conditions: Homo sapiens, A-375, A375, 72 h, read-out: IC50 (growth inhibition, cytotoxicity)
Method: as §1, §2

HCT116 cells = test: Cell proliferation (CCK8) assay, HCT116; format: cell-based, human; conditions: Homo sapiens, HCT-116, 72 h, HCT116, 72 h, read-out: IC50 (growth inhibition, cytotoxicity)
Method: as §1, §2

HCT116 tumor = test: HCT116 subcutaneous xenograft model in nude mice; format: in vivo; conditions: mouse, in vivo
Method: Male BALB/c nude mice of around 8 weeks old were purchased from Charles River (Beijing, China). Nude mice were raised in SPF-grade animal rooms and had access to water and food ad libitum. HCT116 colorectal cancer cells were grown in DMEM supplemented with 10% fetal calf serum and 1% penicillin/streptomycin under standard cell culture conditions. HCT116 xenografts were prepared by subcutaneously injecting 5× 10^6 cells suspended in PBS into the right flank of each male BALB/c nude mouse. Tumor growth was monitored via caliper measurement, and volume was calculated using the following equation: 0.5 × max (length/width) × min (length/width) × min (length/width). When the tumors reached an average of approximately 100 mm^3, the mice were randomized into groups of five. The mice were injected intraperitoneally once a day at doses of 6, 12, 25 mg/kg compound B1-10J and 25 mg/kg 5-FU. Body weights and tumor volumes were measured every 2–3 days. All studies were appropriately statistically powered.

Compound	ERK1/2 degradative activity (in words) (ERK1/2)	DC50 (ERK1/2)	IC50 (Calu-6 cells)	IC50 (A375 cells)	IC50 (HCT116 cells)	DCmax (ERK1/2)	melting point	body weight / tolerability (HCT116 tumor)
Cc1cccc(CN2C(=O)c3cc(-c4nc(Nc5ccnc(C#CCCN6CCN(CCCCCCCCNc7cccc8c7C(=O)N(C7CCC(=O)NC7=O)C8=O)CC6)c5)ncc4C)cn3C[C@H]2C)n1 (stereo partly shown) [Compound B1-10P]	slightly increased DC50; also recorded: effective ERK1/2 degraders	616 ± 389 nM	> 30 µM	> 30 µM	2.2 ± 0.6 µM			
Cc1cccc(CN2C(=O)c3cc(-c4nc(Nc5ccnc(C#CCCN(C)CCCCCCCCCCCC(=O)N[C@H](C(=O)N6C[C@H](O)C[C@H]6C(=O)N[C@@H](C)c6ccc(-c7scnc7C)cc6)C(C)(C)C)c5)ncc4C)cn3C[C@H]2C)n1 [Compound B2-12J]	lost its degradative activity							
Cc1cccc(CN2C(=O)c3cc(-c4nc(Nc5cccc(C#CCCNC(=O)CCCCCCCCCNc6cccc7c6C(=O)N(C6CCC(=O)NC6=O)C7=O)c5)ncc4C)cn3C[C@H]2C)n1 (stereo partly shown) [Compound B1-10B]	no degradative activity was observed							
Cc1cccc(CN2C(=O)c3cc(-c4nc(Nc5ccnc(C#CCCNC(=O)CCCCCCCCCCCCC(=O)N[C@H](C(=O)N6C[C@H](O)C[C@H]6C(=O)N[C@@H](C)c6ccc(-c7scnc7C)cc6)C(C)(C)C)c5)ncc4C)cn3C[C@H]2C)n1 [Compound B2-14]	effective ERK1/2 degraders	307 ± 191 nM				exceeding 65%	128 to 129 °C	
Cc1cccc(CN2C(=O)c3cc(-c4nc(Nc5ccnc(C#CCCNC(=O)CCCCCCCCCNc6cccc7c6C(=O)N(C6CCC(=O)NC6=O)C7=O)c5)ncc4C)cn3C[C@H]2C)n1 (stereo partly shown) [Compound B1-10]	effective ERK1/2 degraders	333 ± 169 nM	> 30 µM	> 30 µM	> 30 µM	exceeding 65%		
Cc1cccc(CN2C(=O)c3cc(-c4nc(Nc5ccnc(C#CCCNC(=O)CCCCCCCCCCC(=O)N[C@H](C(=O)N6C[C@H](O)C[C@H]6C(=O)N[C@@H](C)c6ccc(-c7scnc7C)cc6)C(C)(C)C)c5)ncc4C)cn3C[C@H]2C)n1 [Compound B2-12]	effective ERK1/2 degraders	383 ± 208 nM	> 30 µM	7.5 ± 6.1 µM	11.7 ± 10.5 µM	exceeding 65%	143 to 144 °C	
O=c1[nH]cc(F)c(=O)[nH]1 [Compound 5-FU, 5-fluorouracil, reference compound]								trend of weight loss
CNCCC#Cc1cc(Nc2ncc(C)c(-c3cc4n(c3)C[C@@H](C)N(Cc3cccc(C)n3)C4=O)n2)ccn1 [B-J]			6.5 ± 1.3 µM	16.8 ± 3 µM	17.8 ± 3.9 µM			
Cc1cccc(CN2C(=O)c3cc(-c4nc(Nc5ccnc(C#CCCNC(=O)CCCCCCCCC(=O)N[C@H](C(=O)N6C[C@H](O)C[C@H]6C(=O)N[C@@H](C)c6ccc(-c7scnc7C)cc6)C(C)(C)C)c5)ncc4C)cn3C[C@H]2C)n1 [Compound B2-10]	effective ERK1/2 degraders	698 ± 361 nM					144 to 145 °C	
Cc1cccc(CN2C(=O)c3cc(-c4nc(Nc5ccnc(NCCCNC(=O)CCCCCCCCCNc6cccc7c6C(=O)N(C6CCC(=O)NC6=O)C7=O)c5)ncc4C)cn3C[C@H]2C)n1 (stereo partly shown) [Compound B1-10N]	degradative activity disappeared						110 to 111 °C	
Cc1cccc(CN2C(=O)c3cc(-c4nc(Nc5ccnc(C#CCCN6CCN(CCCCCCCCCC(=O)N[C@H](C(=O)N7C[C@H](O)C[C@H]7C(=O)N[C@@H](C)c7ccc(-c8scnc8C)cc7)C(C)(C)C)CC6)c5)ncc4C)cn3C[C@H]2C)n1 [Compound B2-12P]	significantly increased DC50 value	3800 ± 1820 nM					145 to 146 °C	
Cc1cccc(CN2C(=O)c3cc(-c4nc(Nc5ccn(CCCCNC(=O)CCCCCCCCCNc6cccc7c6C(=O)N(C6CCC(=O)NC6=O)C7=O)n5)ncc4C)cn3C[C@H]2C)n1 (stereo partly shown) [Compound B1-10BZ]	degradative activity disappeared; also recorded: no degradative activity was observed							
